Measurements: patent US20070009965A1, “Novel method for screening for GPCR agonists and/or antagonists from herbs” (Advanced Gene Technology, Corp., priority 2004, published 2007)

Molecular target: MC5R (Homo sapiens, UniProt P33032)
Assay: herbal chip hybridization with MC5R and Cy3-anti-MC5R, fluorescence imaging
Format: binding
Conditions: at least 25 ng/ml NDP-MSH spotted on coated slide; at least 25 μg/ml MC5R; at least 5 μg/ml Cy3-anti-MC5R; laser scanner
Description: A coated plastic slide (1) having active epoxy groups on its surface was prepared in accordance with the method disclosed in the Paragraph entitled “Pretreatment of the Plastic Slide and Preparation of the Coated Plastic Slide” under the Example section of U.S. Pat. No. 6,645,719 B2.
In a dark room, under room temperature, at least 25 μg/ml of MC3R, MC4R and MC5R were individually added to the slides (2), and the resultant slides (3) were allowed to stand for 1 hour for completing hybridization. The slides (3) were washed with 1× TBST buffer (50 mM Tris, pH 7.3, 0.15 M NaCl and 0.02% Tween 20) and Milli-Q water, and then dried in an incubator at 37° C.
Also in the dark room, under room temperature, at least 5 μg/ml of Cy3-anti-MC3R, Cy3-anti-MC4R and Cy3-anti-MC5R were respectively added to the slides (3), each containing said bound MC3R, MC4R or MC5R. The resultant slides (4) were allowed to stand for 1 hour for completing the specific MCXR-anti-MCXR binding, and were then washed with 1× TBST buffer (50 mM Tris, pH 7.3, 0.15 M NaCl and 0.02% Tween 20) and Milli-Q water, and dried in an incubator at 37° C.

MC5R, sequence (P33032 whole entry, species assumed): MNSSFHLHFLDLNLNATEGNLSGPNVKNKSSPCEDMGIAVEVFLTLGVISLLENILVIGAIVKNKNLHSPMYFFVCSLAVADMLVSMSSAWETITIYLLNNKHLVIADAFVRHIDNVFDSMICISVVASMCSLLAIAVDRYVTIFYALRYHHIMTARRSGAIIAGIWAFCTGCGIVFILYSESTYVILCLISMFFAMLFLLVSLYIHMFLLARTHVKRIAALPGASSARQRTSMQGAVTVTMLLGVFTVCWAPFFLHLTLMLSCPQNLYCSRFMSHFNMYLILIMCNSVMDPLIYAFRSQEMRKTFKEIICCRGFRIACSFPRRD

With “NH2-Ser-Thr-Ser-Nle-Glu-His-D-Phe-Arg-Trp-Gly-Lys-Pro-Val-OH [NDP-MSH]” the “Mean of Fluorescence Intensity (M)” value was 722.50.
